Results: patent US6444787B1, “Method of isolating a peptide which immunologically mimics microbial carbohydrates including group B streptococcal carbohydrates and the use thereof in a vaccine” (Research Development Institute, Inc., priority 1997, dated 2002)
Ends that are not written are not given here.

Tested on: anti-GBS antibodies
Assay: ELISA, binding of antibodies to synthetic peptide
Parameters: species or system murine
Conditions: peptide coated at 10 μg/ml; FIG. 1 panel A
Procedure: Microtiter wells were coated with peptide at 10 μg/ml and then blocked with 1% BSA. Test antibodies were added to the wells, incubated and washed. Antibody binding was detected with alkaline phosphatase conjugated anti-Ig and then substrate. The values are A405, mean of duplicate or triplicate samples. […] The binding of all antibodies to BSA was<0.1.
Capsular polysaccharide was coated directly onto microtiter wells.

FDTGAFDPDWPAC was tested, and the “Binding of monoclonal antibodies S7 and S9 to peptide” value was “seen only with antibody S9”.
